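Values below derive from 48-hour exposures of cells grown in 96-well plates, with endpoints linearly interpolated between the two concentrations bracketing the appropriate inhibition level. GI50: concentration for 50% inhibition of growth. TGI marks complete inhibition of growth.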
Key:
Experiment in all cases: inhibition of tumour cell growth, NCI panel, 48 h
SK-OV-3 ovarian = test system: SK-OV-3 ovarian
CCRF-CEM leukemia = test system: CCRF-CEM leukemia
HT29 colon = test system: HT29 colon
A498 renal = test system: A498 renal
MDA-MB-231 breast = test system: MDA-MB-231 breast
UO-31 renal = test system: UO-31 renal
UACC-257 melanoma = test system: UACC-257 melanoma
COLO 205 colon = test system: COLO 205 colon
A549 NSCLC = test system: A549 NSCLC
NCI-H23 lung = test system: NCI-H23 lung
SK-MEL-28 melanoma = test system: SK-MEL-28 melanoma
SF-539 CNS = test system: SF-539 CNS
NCI/ADR-RES ovarian = test system: NCI/ADR-RES ovarian
MDA-MB-435 = test system: MDA-MB-435
TK-10 renal = test system: TK-10 renal
HOP-92 NSCLC = test system: HOP-92 NSCLC
SNB-19 CNS = test system: SNB-19 CNS
OVCAR-5 ovarian = test system: OVCAR-5 ovarian
EKVX NSCLC = test system: EKVX NSCLC
SW-620 colon = test system: SW-620 colon
SNB-75 CNS = test system: SNB-75 CNS
SF-295 CNS = test system: SF-295 CNS
SK-MEL-2 melanoma = test system: SK-MEL-2 melanoma
HS 578T breast = test system: HS 578T breast
HCT-15 colon = test system: HCT-15 colon
IGROV1 ovarian = test system: IGROV1 ovarian
DU-145 prostate = test system: DU-145 prostate
OVCAR-3 ovarian = test system: OVCAR-3 ovarian
SK-MEL-5 melanoma = test system: SK-MEL-5 melanoma
BT-549 breast = test system: BT-549 breast
OVCAR-8 ovarian = test system: OVCAR-8 ovarian
ACHN renal = test system: ACHN renal
M14 melanoma = test system: M14 melanoma
T-47D breast = test system: T-47D breast
NCI-H226 lung = test system: NCI-H226 lung
RPMI-8226 leukemia = test system: RPMI-8226 leukemia
HCT-116 colon = test system: HCT-116 colon
SF-268 CNS = test system: SF-268 CNS
CAKI-1 renal = test system: CAKI-1 renal
LOX IMVI melanoma = test system: LOX IMVI melanoma
UACC-62 melanoma = test system: UACC-62 melanoma
HCC-2998 colon = test system: HCC-2998 colon
SR leukemia = test system: SR leukemia
786-0 renal = test system: 786-0 renal
NCI-H522 lung = test system: NCI-H522 lung
PC-3 prostate = test system: PC-3 prostate
KM12 colon = test system: KM12 colon
MALME-3M melanoma = test system: MALME-3M melanoma
MCF7 breast = test system: MCF7 breast
MOLT-4 leukemia = test system: MOLT-4 leukemia
OVCAR-4 ovarian = test system: OVCAR-4 ovarian
HL-60(TB) leukemia = test system: HL-60(TB) leukemia
SN12C renal = test system: SN12C renal
NCI-H460 lung = test system: NCI-H460 lung
U251 CNS = test system: U251 CNS
HOP-62 NSCLC = test system: HOP-62 NSCLC
K-562 leukemia = test system: K-562 leukemia
RXF 393 renal = test system: RXF 393 renal

Q: Which results are given for `COC(=O)CCC1=C(C)C(C)=N/C1=C\c1[nH]c(-c2ccc[nH]2)cc1OC`?
A: GI50 (SK-OV-3 ovarian): 2820 nM; TGI (SK-OV-3 ovarian): 15900 nM; GI50 (CCRF-CEM leukemia): 403 nM; TGI (CCRF-CEM leukemia): 13600 nM; GI50 (HT29 colon): 277 nM; TGI (HT29 colon): 3850 nM; GI50 (A498 renal): 3350 nM; TGI (A498 renal): 15800 nM; GI50 (MDA-MB-231 breast): 228 nM; TGI (MDA-MB-231 breast): 2090 nM; GI50 (UO-31 renal): 479 nM; TGI (UO-31 renal): 2550 nM; GI50 (UACC-257 melanoma): 1440 nM; TGI (UACC-257 melanoma): 9860 nM; GI50 (COLO 205 colon): 394 nM; TGI (COLO 205 colon): 1480 nM; GI50 (A549 NSCLC): 368 nM; TGI (A549 NSCLC): 10200 nM; GI50 (NCI-H23 lung): 805 nM; TGI (NCI-H23 lung): 11400 nM; GI50 (SK-MEL-28 melanoma): 1850 nM; TGI (SK-MEL-28 melanoma): 8470 nM; GI50 (SF-539 CNS): 639 nM; TGI (SF-539 CNS): 6380 nM; GI50 (NCI/ADR-RES ovarian): 476 nM; TGI (NCI/ADR-RES ovarian): 13200 nM; GI50 (MDA-MB-435): 472 nM; TGI (MDA-MB-435): 5340 nM; GI50 (TK-10 renal): 930 nM; TGI (TK-10 renal): 10100 nM; GI50 (HOP-92 NSCLC): 211 nM; TGI (HOP-92 NSCLC): 649 nM; GI50 (SNB-19 CNS): 1890 nM; TGI (SNB-19 CNS): 17000 nM; GI50 (OVCAR-5 ovarian): 490 nM; TGI (OVCAR-5 ovarian): 12200 nM; GI50 (EKVX NSCLC): 712 nM; TGI (EKVX NSCLC): 14300 nM; GI50 (SW-620 colon): 385 nM; TGI (SW-620 colon): 11900 nM; GI50 (SNB-75 CNS): 434 nM; TGI (SNB-75 CNS): 3620 nM; GI50 (SF-295 CNS): 724 nM; TGI (SF-295 CNS): 4280 nM; GI50 (SK-MEL-2 melanoma): 363 nM; TGI (SK-MEL-2 melanoma): 1210 nM; GI50 (HS 578T breast): 1060 nM; TGI (HS 578T breast): 8150 nM; GI50 (HCT-15 colon): 262 nM; TGI (HCT-15 colon): 3150 nM; GI50 (IGROV1 ovarian): 1060 nM; TGI (IGROV1 ovarian): 17400 nM; GI50 (DU-145 prostate): 880 nM; TGI (DU-145 prostate): 14900 nM; GI50 (OVCAR-3 ovarian): 478 nM; TGI (OVCAR-3 ovarian): 2410 nM; GI50 (SK-MEL-5 melanoma): 145 nM; TGI (SK-MEL-5 melanoma): 315 nM; GI50 (BT-549 breast): 621 nM; TGI (BT-549 breast): 13400 nM; GI50 (OVCAR-8 ovarian): 334 nM; TGI (OVCAR-8 ovarian): 12400 nM; GI50 (ACHN renal): 410 nM; TGI (ACHN renal): 2760 nM; GI50 (M14 melanoma): 548 nM; TGI (M14 melanoma): 12200 nM; GI50 (T-47D breast): 329 nM; TGI (T-47D breast): 3420 nM; GI50 (NCI-H226 lung): 313 nM; TGI (NCI-H226 lung): 1800 nM; GI50 (RPMI-8226 leukemia): 356 nM; TGI (RPMI-8226 leukemia): 1920 nM; GI50 (HCT-116 colon): 326 nM; TGI (HCT-116 colon): 1260 nM; GI50 (SF-268 CNS): 935 nM; TGI (SF-268 CNS): 16200 nM; GI50 (CAKI-1 renal): 338 nM; TGI (CAKI-1 renal): 6360 nM; GI50 (LOX IMVI melanoma): 221 nM; TGI (LOX IMVI melanoma): 609 nM; GI50 (UACC-62 melanoma): 365 nM; TGI (UACC-62 melanoma): 1260 nM; GI50 (HCC-2998 colon): 464 nM; TGI (HCC-2998 colon): 14600 nM; GI50 (SR leukemia): 352 nM; GI50 (786-0 renal): 456 nM; TGI (786-0 renal): 2950 nM; GI50 (NCI-H522 lung): 515 nM; TGI (NCI-H522 lung): 1910 nM; GI50 (PC-3 prostate): 633 nM; TGI (PC-3 prostate): 14400 nM; GI50 (KM12 colon): 393 nM; TGI (KM12 colon): 6390 nM; GI50 (MALME-3M melanoma): 2010 nM; TGI (MALME-3M melanoma): 7090 nM; GI50 (MCF7 breast): 297 nM; TGI (MCF7 breast): 2790 nM; GI50 (MOLT-4 leukemia): 567 nM; TGI (MOLT-4 leukemia): 16400 nM; GI50 (OVCAR-4 ovarian): 371 nM; TGI (OVCAR-4 ovarian): 7460 nM; GI50 (HL-60(TB) leukemia): 567 nM; TGI (HL-60(TB) leukemia): 3340 nM; GI50 (SN12C renal): 805 nM; TGI (SN12C renal): 14300 nM; GI50 (NCI-H460 lung): 490 nM; TGI (NCI-H460 lung): 12100 nM; GI50 (U251 CNS): 419 nM; TGI (U251 CNS): 2870 nM; GI50 (HOP-62 NSCLC): 471 nM; TGI (HOP-62 NSCLC): 1720 nM; GI50 (K-562 leukemia): 462 nM; TGI (K-562 leukemia): 24200 nM; GI50 (RXF 393 renal): 242 nM; TGI (RXF 393 renal): 1060 nM

Source: PubChem BioAssay (NCI)
